Experimental data published in ChEMBL document CHEMBL1135383, “Increase of the adenallene anti-HIV activity in cell culture using its bis(tBuSATE) phosphotriester derivative” (Bioorg Med Chem Lett, 2002).

Legend:
MT4 [1] = assay: Cytotoxic concentration required to inhibit the replication of HIV-1 in MT-4 human T4 lymphoblastoid cell lines; type: functional
CEM-SS [2] = assay: Cytotoxic concentration required to inhibit the replication of HIV-1 in CEM-SS human T4 lymphoblastoid cell lines; type: functional
CEM-SS [3] = assay: Effective concentration required to inhibit the replication of HIV-1 in CEMSS human T4 lymphoblastoid cell lines; type: functional, cell-based
MT2 [4] = assay: Cytotoxic concentration required to inhibit the replication of HIV-1 in MT-2 human T4 lymphoblastoid cell lines; type: functional
MT4 [5] = assay: Effective concentration required to inhibit the replication of HIV-1 in MT-4 human T4 lymphoblastoid cell lines; type: functional, cell-based
MT2 [6] = assay: Effective concentration required to inhibit the replication of HIV-1 in MT-2 human T4 lymphoblastoid cell lines; type: functional, cell-based

EC50 (CEM-SS [3]) [µM]	EC50 (MT2 [6]) [µM]	SMILES	CC50 (MT4 [1]) [µM]	CC50 (CEM-SS [2]) [µM]	CC50 (MT2 [4]) [µM]	EC50 (MT4 [5]) [µM]
1.2	6.4	CC(C)(C)C(=O)SCCOP(=O)(OCC=C=Cn1cnc2c(N)ncnc21)OCCSC(=O)C(C)(C)C	> 10	> 10	28	8.9
56	> 100	Nc1ncnc2c1ncn2C=C=CCO (racemic)	> 100	> 100	> 100	> 100
